Active and inactive are the calls of the source. No rule for the calls is given here.
Tested on: CCRIS mutagenicity, Ames/micronucleus/aberration tests
Test: CCRIS mutagenicity studies

Measured: mutagenic call

O.O.O.O.O.O.[Cl-].[Cl-].[Co+2]
active: End Point: IN VIVO CHROMOSOMAL ABERRATIONS, Test System: BONE MARROW CELLS, Species: MOUSE, Strain/Sex: SWISS ALBINO/MALE, Route: ORAL active; positive (structural and ploidy changes) | Test System: CHINESE HAMSTER V-79, Strain/Indicator: SPD8 V-79 (HPRT)/6-THIOGUANINE, Metabolic Activation: NONE, Method: STANDARD PLATE active; positive
inactive: Test System: CHINESE HAMSTER V-79, Strain/Indicator: SP5 V-79 (HPRT)/6-THIOGUANINE, Metabolic Activation: NONE, Method: STANDARD PLATE inactive; negative

CN(N=O)C(=O)N[C@@H]1O[C@H](CO)[C@H](O)[C@H](O)[C@H]1O
active: Test System: CHINESE HAMSTER V-79, Strain/Indicator: V-79/8-AZAGUANINE, Metabolic Activation: NONE, Method: STANDARD PLATE active; positive

CCNc1nc(Cl)nc(NC(C)(C)C#N)n1
inactive: End Point: In vitro chromosomal aberrations, Test System: Human lymphocytes, Metabolic Activation: None inactive; negative for aberrations but cell cycle delay at 250 and 350 ug/ml doses | End Point: In vitro chromosomal aberrations, Test System: Human lymphocytes, Metabolic Activation: Rat, liver, S-9, Aroclor 1254 inactive; negative | Test System: Ames Salmonella typhimurium, Strain/Indicator: TA97a, Metabolic Activation: None, Method: Plate incorporation inactive; negative, cytotoxicity at highest dose. | Test System: Ames Salmonella typhimurium, Strain/Indicator: TA97a, Metabolic Activation: Rat, liver, S-9, Aroclor 1254, Method: Plate incorporation inactive; negative, cytotoxicity at highest dose. | Test System: Ames Salmonella typhimurium, Strain/Indicator: TA98, Metabolic Activation: None, Method: Plate incorporation inactive; negative, cytotoxicity at highest dose. | Test System: Ames Salmonella typhimurium, Strain/Indicator: TA98, Metabolic Activation: Rat, liver, S-9, Aroclor 1254, Method: Plate incorporation inactive; negative, cytotoxicity at highest dose. | Test System: Ames Salmonella typhimurium, Strain/Indicator: TA100, Metabolic Activation: None, Method: Plate incorporation inactive; negative, cytotoxicity at highest dose. | Test System: Ames Salmonella typhimurium, Strain/Indicator: TA100, Metabolic Activation: Rat, liver, S-9, Aroclor 1254, Method: Plate incorporation inactive; negative, cytotoxicity at highest dose. | Test System: Ames Salmonella typhimurium, Strain/Indicator: TA1535, Metabolic Activation: None, Method: Plate incorporation inactive; negative, cytotoxicity at highest dose. | Test System: Ames Salmonella typhimurium, Strain/Indicator: TA1535, Metabolic Activation: Rat, liver, S-9, Aroclor 1254, Method: Plate incorporation inactive; negative, cytotoxicity at highest dose. | Test System: UDS HUMAN PERIPHERAL BLOOD LYMPHOCYTES, Strain/Indicator: THY INCORP, Metabolic Activation: NONE, Method: LIQUID SCINTILLATION inactive; negative | Test System: UDS HUMAN PERIPHERAL BLOOD LYMPHOCYTES, Strain/Indicator: THY INCORP, Metabolic Activation: RAT, LIVER, S-9, PHENOBARBITAL AND BETA-NAPHTHOFLAVONE, Method: LIQUID SCINTILLATION inactive; negative
active: Test System: UDS rat primary hepatocytes, Strain/Indicator: Thymidine incorporation, Metabolic Activation: None, Method: Autoradiography active; positive at >/= 1 um

S=C([S-])NCCNC(=S)[S-].[Zn+2]
inactive: Test System: AMES SALMONELLA TYPHIMURIUM, Strain/Indicator: TA98, Metabolic Activation: NONE, Method: STANDARD PLATE inactive; negative | Test System: AMES SALMONELLA TYPHIMURIUM, Strain/Indicator: TA98, Metabolic Activation: RAT, LIVER, S-9, AROCLOR 1254, Method: STANDARD PLATE inactive; negative | Test System: AMES SALMONELLA TYPHIMURIUM, Strain/Indicator: TA100, Metabolic Activation: NONE, Method: STANDARD PLATE inactive; negative | Test System: AMES SALMONELLA TYPHIMURIUM, Strain/Indicator: TA100, Metabolic Activation: RAT, LIVER, S-9, AROCLOR 1254, Method: STANDARD PLATE inactive; negative | Test System: AMES SALMONELLA TYPHIMURIUM, Strain/Indicator: TA1535, Metabolic Activation: NONE, Method: STANDARD PLATE inactive; negative | Test System: AMES SALMONELLA TYPHIMURIUM, Strain/Indicator: TA1535, Metabolic Activation: RAT, LIVER, S-9, AROCLOR 1254, Method: STANDARD PLATE inactive; negative | Test System: AMES SALMONELLA TYPHIMURIUM, Strain/Indicator: TA1537, Metabolic Activation: NONE, Method: STANDARD PLATE inactive; negative | Test System: AMES SALMONELLA TYPHIMURIUM, Strain/Indicator: TA1537, Metabolic Activation: RAT, LIVER, S-9, AROCLOR 1254, Method: STANDARD PLATE inactive; negative | Test System: E. COLI, Strain/Indicator: WP2, Metabolic Activation: NONE, Method: STANDARD PLATE inactive; negative | Test System: E. COLI, Strain/Indicator: WP2, Metabolic Activation: RAT, LIVER, S-9, AROCLOR 1254, Method: STANDARD PLATE inactive; negative

Cc1ccc(N(CC2(O)OC[C@@H](O)[C@@H](O)[C@@H]2O)N=O)cc1 (stereo not given in full)
active: Test System: AMES SALMONELLA TYPHIMURIUM, Strain/Indicator: TA100, Metabolic Activation: NONE, Method: LIQUID INCUBATION active; positive

CC(=O)OCc1ccco1
active: Test System: AMES SALMONELLA TYPHIMURIUM, Strain/Indicator: TA98, Metabolic Activation: RAT, LIVER, S-9, AROCLOR 1254 (10%), Method: PREINCUBATION active; positive | Test System: AMES SALMONELLA TYPHIMURIUM, Strain/Indicator: TA100, Metabolic Activation: NONE, Method: PREINCUBATION active; positive | Test System: AMES SALMONELLA TYPHIMURIUM, Strain/Indicator: TA100, Metabolic Activation: RAT, LIVER, S-9, AROCLOR 1254 (10%), Method: PREINCUBATION active; positive
inactive: Test System: AMES SALMONELLA TYPHIMURIUM, Strain/Indicator: TA98, Metabolic Activation: HAMSTER, LIVER, S-9, AROCLOR 1254 (10%), Method: PREINCUBATION inactive; negative | Test System: AMES SALMONELLA TYPHIMURIUM, Strain/Indicator: TA98, Metabolic Activation: NONE, Method: PREINCUBATION inactive; negative | Test System: AMES SALMONELLA TYPHIMURIUM, Strain/Indicator: TA100, Metabolic Activation: HAMSTER, LIVER, AROCLOR 1254 (10%), Method: PREINCUBATION inactive; negative | Test System: AMES SALMONELLA TYPHIMURIUM, Strain/Indicator: TA1535, Metabolic Activation: HAMSTER, LIVER, S-9, AROCLOR 1254 (10%), Method: PREINCUBATION inactive; negative | Test System: AMES SALMONELLA TYPHIMURIUM, Strain/Indicator: TA1535, Metabolic Activation: NONE, Method: PREINCUBATION inactive; negative | Test System: AMES SALMONELLA TYPHIMURIUM, Strain/Indicator: TA1535, Metabolic Activation: RAT, LIVER, S-9, AROCLOR 1254 (10%), Method: PREINCUBATION inactive; negative | Test System: AMES SALMONELLA TYPHIMURIUM, Strain/Indicator: TA1537, Metabolic Activation: HAMSTER, LIVER, S-9, AROCLOR 1254 (10%), Method: PREINCUBATION inactive; negative | Test System: AMES SALMONELLA TYPHIMURIUM, Strain/Indicator: TA1537, Metabolic Activation: NONE, Method: PREINCUBATION inactive; negative | Test System: AMES SALMONELLA TYPHIMURIUM, Strain/Indicator: TA1537, Metabolic Activation: RAT, LIVER, S-9, AROCLOR 1254 (10%), Method: PREINCUBATION inactive; negative

Reference: PubChem BioAssay AID1259407 (Chemical Carcinogenesis Research Information System (CCRIS), 2018)
